Data on eight molecules can be found in ChEMBL document CHEMBL5143540, “Design, synthesis and biological evaluation of nitrofuran-1,3,4-oxadiazole hybrids as new antitubercular agents” (Bioorg Med Chem, 2022).

Each structure is given as a SMILES string. In brackets after ≈: the same amount, converted by molar mass. Some results are limits rather than exact numbers.

The assay relates to Mycobacterium tuberculosis. As to the kind of experiment: Antitubercular activity against multi-drug resistant Mycobacterium tuberculosis 16833 assessed as reduction in bacterial growth incubated for 7 days by Alamar blue assay. The conditions noted are these: Mycobacterium tuberculosis, 16833, 168 h; time 7 day. Format: functional.
A word on the MIC: it is the least concentration at which growth counts as inhibited. On to `COc1ccc(-c2nnc(CNC(=O)c3ccc([N+](=O)[O-])o3)o2)cc1`, for which the MIC was found to be 3.58 µg/mL (≈ 10.4 µM). Turning to `CC(C)(C)c1ccc(-c2nnc(CNC(=O)c3ccc([N+](=O)[O-])o3)o2)cc1`, the MIC came out at 1.85 µg/mL (≈ 5 µM). In the case of `CC(C)(C)c1ccc(-c2nnc(-c3ccc([N+](=O)[O-])o3)o2)cc1` it was above 32 µg/mL. In the case of `O=C(NCc1nnc(-c2ccc(OC(F)(F)F)cc2)o1)c1ccc([N+](=O)[O-])o1` it was 1.96 µg/mL (≈ 4.91 µM); in that of `O=C(Nc1nnc(-c2ccc(Br)cc2)o1)c1ccc([N+](=O)[O-])o1`, 1.44 µg/mL (≈ 3.8 µM).

As to `O=C(NCc1nnc(-c2ccc(C(F)(F)F)cc2)o1)c1ccc([N+](=O)[O-])o1`, the minimum inhibitory concentration (MIC) turned out to be 1.93 µg/mL (≈ 5.04 µM). As for `NNC(=O)c1ccncc1` [ISONIAZID], the MIC was above 32 µg/mL.

For `CO[C@H]1/C=C/O[C@@]2(C)Oc3c(C)c(O)c4c(O)c(c(/C=N/N5CCN(C)CC5)c(O)c4c3C2=O)NC(=O)/C(C)=C\C=C\[C@H](C)[C@H](O)[C@@H](C)[C@@H](O)[C@@H](C)[C@H](OC(C)=O)[C@@H]1C` [RIFAMPIN], the MIC is above 32 µg/mL.
